The record followed here is patent publication US20250250285A1, “IRON-ACTIVABLE NITROGEN-CONTAINING DERIVATIVES OF SALINOMYCIN AND NARASIN, SYNTHESIS AND USE FOR THE TREATMENT OF CANCERS” (Centre National de la Recherche Scientifique, priority 2021, published 2025).

Where two headings read alike, the source gives them in different places.

The test system of one data set is PDAC030T. The data set is described as follows: Cell viability (CellTiter-Blue), IC50 on PDAC030T. The format is cell-based, human. The settings on record: 72 h treatment.
The next data set concerns PDAC090T. The data set is described as follows: Cell viability (CellTiter-Blue), IC50 on PDAC090T. The format is cell-based, human. The settings on record: 72 h treatment.
Another data set deals with PDAC085T. In words: Cell viability (CellTiter-Blue), IC50 on PDAC085T. The format is cell-based, human. Particulars: 72 h treatment.
The test system of another data set is PDAC211T. In words: Cell viability (CellTiter-Blue), IC50 on PDAC211T. The format is cell-based, human. Particulars: 72 h treatment.
A further data set concerns PDAC053T. In words: Cell viability (CellTiter-Blue), IC50 on PDAC053T. The format is cell-based, human. The settings on record: for IC50: PDAC053T, 72 h treatment, CellTiter-Blue. On the procedure:
PDAC053T cells were a generous gift from Juan Iovanna (INSERM) and cultured in serum-free ductal medium as published before (Gastroenterology. 2004, 127(1):250-260). Liproxstatin-1 (Sigma Aldrich, Cat #SML1414) was used at a concentration of 1 μM.

In the next data set the test system is MCF10A. The data set is described as follows: IC50 on nontumorigenic epithelial breast cell MCF10A. The settings on record: for toxicity toward nontumorigenic epithelial cells compared with respective parent compound: in words, versus parent compound.
Data set [1] relates to HMLER CD44^high/CD24^low cells. The data set is described as follows: IC50 on HMLER CD44high/CD24low cells (breast cancer stem cell model). The format is cell-based, human. The settings on record: mesenchymal state. The text has this: (§1) The inventors also evaluated the biological activity of prodrugs and parent structures against transformed human mammary epithelial HMLER CD44^high/CD24^low cells, a model of human breast cancer stem cells stable in the mesenchymal state, and against control epithelial HMLER CD44^low/CD24^high cells.

For data set [2], the system named is HMLER CD44^low/CD24^high cells. In words: IC50 on control epithelial HMLER CD44low/CD24high cells. The format is cell-based, human.
Excerpt: as §1

Where [3] appears, read: MCF10A nontumorigenic epithelial breast cell.

Description for MCF10A: (§2) Cell viability was evaluated by plating 4000 cells/well in 96-well plates using CellTiter-Blue viability assay according to the manufacturer's protocol. […] CellTiter-Blue reagent (Promega, G8081) was added after 72 h treatment and cells were incubated for 2 h before recording fluorescence intensities (ex. 560 nm; em. 590 nm) using a Perkin Elmer Wallac 1420 Victor2 Microplate Reader.
In addition to the above distinct patient-derived pancreatic ductal adenocarcinoma (PDAC) cell lines, the compounds were also evaluated against nontumorigenic epithelial breast cell MCF10A.
Description for PDAC030T: as §2
Description for PDAC085T: as §2
Description for PDAC090T: as §2
Description for PDAC211T: as §2

As for `C#CCN[C@@H]1C=C[C@]2(O[C@H]([C@@H](CC)C(=O)[C@@H](C)[C@@H](O)[C@H](C)C3O[C@@H](C(CC)C(=O)OC)CC[C@@H]3C)[C@@H](C)C[C@H]2C)O[C@@]12CC[C@@](C)([C@H]1CC[C@](O)(CC)[C@H](C)O1)O2` (some centres unmarked) [AM9, C1 Methyl Ester of Ironomycin, reference compound], the IC50 with PDAC030T was 5670 nM; with PDAC090T, 5890 nM; in the data set with PDAC085T, 8880 nM; in the data set on PDAC211T it was 5010 nM; with PDAC053T, 7460 nM; with MCF10A (setting [3]) it was 12200 nM. Besides, the IC50 in data set [1] is 13200 nM; in data set [2] it was 15200 nM.
On to `C[C@H]1[C@@H](O)O[C@@H]2O[C@@]3(C)CC[C@H]4[C@H](C)CC[C@@H]1[C@@]24OO3` [DHA, dihydroartemisinin, reference compound], for which the IC50 in the data set with PDAC030T (Homo sapiens) was 8080 nM; in the data set with PDAC090T (Homo sapiens), 35400 nM; in the data set with PDAC085T (Homo sapiens), 21600 nM; with PDAC211T (Homo sapiens) it was 10300 nM; in the data set with PDAC053T (Homo sapiens), more than 50000 nM; in the data set with MCF10A (Homo sapiens, MCF-10A), 5450 nM. Also, the IC50 in data set [1] (Homo sapiens) is 2850 nM; in data set [2] (Homo sapiens), 14200 nM.
For the compound `C#CCN[C@@H]1C=C[C@]2(O[C@H]([C@@H](CC)C(=O)[C@@H](C)[C@@H](O)[C@H](C)[C@@H]3O[C@@H]([C@@H](CC)C(=O)O)CC[C@@H]3C)[C@@H](C)C[C@H]2C)O[C@@]12CC[C@@](C)([C@H]1CC[C@](O)(CC)[C@H](C)O1)O2` [Ironomycin, reference compound], the IC50 with PDAC030T is 2670 nM; in the data set on PDAC090T, 630 nM; with PDAC085T, 720 nM; in the data set on PDAC211T, 180 nM; in the data set on PDAC053T, 2600 nM; in the data set on MCF10A (setting [3]) it was 120 nM. The IC50 worked out at 160 nM in data set [1] and 1790 nM in data set [2].
`CC[C@@H](C(=O)[C@@H](C)[C@@H](O)[C@H](C)[C@@H]1O[C@@H]([C@@H](CC)C(=O)OC2O[C@@H]3O[C@]4(C)CC[C@H]5[C@H](C)CC[C@@H]([C@H]2C)[C@@]35OO4)CC[C@@H]1C)[C@H]1O[C@]2(C=C[C@@H](O)[C@]3(CC[C@@](C)([C@H]4CC[C@](O)(CC)[C@H](C)O4)O3)O2)[C@H](C)C[C@@H]1C` (some centres unmarked) [MA-I-023, Salinomycin-dihydroartemisinin prodrug]: the IC50 in the data set on PDAC030T (Homo sapiens) was 750 nM; with PDAC090T (Homo sapiens) it was 4530 nM; in the data set with PDAC085T (Homo sapiens) it was 3320 nM; in the data set with PDAC211T (Homo sapiens), 3130 nM; in the data set with PDAC053T (Homo sapiens), 3880 nM; in data set [1] (Homo sapiens), 480 nM. For the same compound, in data set [2] (Homo sapiens), the IC50 turned out to be 820 nM.
With `C#CCN[C@@H]1C=C[C@]2(O[C@H]([C@@H](CC)C(=O)[C@@H](C)[C@@H](O)[C@H](C)[C@@H]3O[C@@H]([C@@H](CC)C(=O)OC4O[C@@H]5O[C@]6(C)CC[C@H]7[C@H](C)CC[C@@H]([C@H]4C)[C@@]57OO6)CC[C@@H]3C)[C@@H](C)C[C@H]2C)O[C@@]12CC[C@@](C)([C@H]1CC[C@](O)(CC)[C@H](C)O1)O2` (some centres unmarked) [MA-I-062, Ironomycin-dihydroartemisinin prodrug], the IC50 with PDAC030T (Homo sapiens) worked out at 500 nM; with PDAC090T (Homo sapiens), 2190 nM; in the data set with PDAC085T (Homo sapiens), 1170 nM; with PDAC211T (Homo sapiens), 100 nM; with PDAC053T (Homo sapiens), 1790 nM; in the data set with MCF10A (Homo sapiens, MCF-10A), 2030 nM. Also, the results for the IC50 in data set [1] (Homo sapiens) and in data set [2] (Homo sapiens) were 160 nM and 480 nM, respectively. Moreover, in the data set with MCF10A, the “toxicity toward nontumorigenic epithelial cells compared with respective parent compound” value was “less toxic”.
`CC[C@@H](C(=O)OC1O[C@@H]2O[C@]3(C)CC[C@H]4[C@H](C)CC[C@@H]([C@H]1C)[C@@]24OO3)[C@@H]1O[C@@H]([C@@H](C)[C@H](O)[C@H](C)C(=O)[C@H](CC)[C@H]2O[C@]3(C=C[C@@H](O)[C@]4(CC[C@@](C)([C@H]5CC[C@](O)(CC)[C@H](C)O5)O4)O3)[C@H](C)C[C@@H]2C)[C@@H](C)C[C@@H]1C` (some centres unmarked) [MA-I-081, narasin-dihydroartemisinin prodrug]: the IC50 with PDAC030T (Homo sapiens) was 90 nM; in the data set on PDAC090T (Homo sapiens), 740 nM; with PDAC085T (Homo sapiens), 440 nM; in the data set on PDAC211T (Homo sapiens), 450 nM; in the data set on PDAC053T (Homo sapiens) it was 540 nM; in data set [1] (Homo sapiens), 190 nM. The IC50 in data set [2] (Homo sapiens) came to 500 nM.
Consider `CC[C@@H](C(=O)OC1O[C@@H]2O[C@]3(C)CC[C@H]4[C@H](C)CC[C@@H]([C@H]1C)[C@@]24OO3)[C@@H]1O[C@@H]([C@@H](C)[C@H](O)[C@H](C)C(=O)[C@H](CC)[C@H]2O[C@]3(C=C[C@@H](NC4CC4)[C@]4(CC[C@@](C)([C@H]5CC[C@](O)(CC)[C@H](C)O5)O4)O3)[C@H](C)C[C@@H]2C)[C@@H](C)C[C@@H]1C` (some centres unmarked) [MA-I-095, C20-cyclopropylaminonarasin-dihydroartemisinin prodrug], for which the IC50 with PDAC030T (Homo sapiens) was 120 nM; in the data set with PDAC090T (Homo sapiens) it was 180 nM; in the data set with PDAC085T (Homo sapiens) it was 70 nM; in the data set on PDAC211T (Homo sapiens) it was 490 nM; in the data set on PDAC053T (Homo sapiens), 90 nM; in the data set with MCF10A (Homo sapiens, MCF-10A) it was 5240 nM. Also, the 50% inhibitory concentration (IC50) in data set [1] (Homo sapiens) was 760 nM; in data set [2] (Homo sapiens) it was 1960 nM. In the data set on PDAC053T (PDAC053T cells, in words), the “potency compared with Nar-AM23” value was “more potent”. Further, the “toxicity toward nontumorigenic epithelial cells compared with respective parent compound” value with MCF10A is recorded as “less toxic”.
On to `C#CCN[C@H]1C=C[C@]2(O[C@H]([C@@H](CC)C(=O)[C@@H](C)[C@@H](O)[C@H](C)[C@@H]3O[C@@H]([C@@H](CC)C(=O)OC4O[C@@H]5O[C@]6(C)CC[C@H]7[C@H](C)CC[C@@H]([C@H]4C)[C@@]57OO6)CC[C@@H]3C)[C@@H](C)C[C@H]2C)O[C@@]12CC[C@@](C)([C@H]1CC[C@](O)(CC)[C@H](C)O1)O2` (some centres unmarked) [MA-I-096], for which the IC50 in the data set on PDAC030T (Homo sapiens) was determined as 90 nM; with PDAC090T (Homo sapiens), 690 nM; in the data set with PDAC085T (Homo sapiens), 360 nM; in the data set with PDAC211T (Homo sapiens) it was 330 nM; in the data set on PDAC053T (Homo sapiens) it was 520 nM; with MCF10A (Homo sapiens, MCF-10A), 1370 nM. For the same compound, the IC50 worked out at 200 nM in data set [1] (Homo sapiens) and 360 nM in data set [2] (Homo sapiens).
For `CC[C@@H](C(=O)O)[C@@H]1O[C@@H]([C@@H](C)[C@H](O)[C@H](C)C(=O)[C@H](CC)[C@H]2O[C@]3(C=C[C@@H](O)[C@]4(CC[C@@](C)([C@H]5CC[C@](O)(CC)[C@H](C)O5)O4)O3)[C@H](C)C[C@@H]2C)[C@@H](C)C[C@@H]1C` [Narasin], the IC50 worked out at 1180 nM with PDAC030T (Homo sapiens); 1160 nM in the data set on PDAC090T (Homo sapiens); 500 nM in the data set on PDAC085T (Homo sapiens); 730 nM with PDAC211T (Homo sapiens); 2000 nM with PDAC053T (Homo sapiens); 790 nM in the data set on MCF10A (Homo sapiens, MCF-10A). The results for the IC50 in data set [1] (Homo sapiens) and in data set [2] (Homo sapiens) were 450 nM and 2960 nM, respectively.
In the case of `CC[C@@H](C(=O)[C@@H](C)[C@@H](O)[C@H](C)[C@@H]1O[C@@H]([C@@H](CC)C(=O)O)CC[C@@H]1C)[C@H]1O[C@]2(C=C[C@@H](O)[C@]3(CC[C@@](C)([C@H]4CC[C@](O)(CC)[C@H](C)O4)O3)O2)[C@H](C)C[C@@H]1C` [Salinomycin], the IC50 in the data set with PDAC030T (Homo sapiens) was determined as 1610 nM; with PDAC090T (Homo sapiens) it was 2660 nM; in the data set on PDAC085T (Homo sapiens), 1560 nM; in the data set on PDAC211T (Homo sapiens), 1290 nM; in the data set on PDAC053T (Homo sapiens) it was 4500 nM; in the data set on MCF10A (Homo sapiens, MCF-10A), 1130 nM. Further, the values for the IC50 in data set [1] (Homo sapiens) and in data set [2] (Homo sapiens) were 1380 nM and 4360 nM, respectively.
Turning to “C20-cyclopropylaminosalinomycin [AM23, reference compound]”, the IC50 with PDAC030T amounted to 110 nM; in the data set with PDAC090T, 210 nM; in the data set with PDAC085T, 360 nM; with PDAC211T it was 40 nM; in the data set on PDAC053T, 830 nM; in the data set with MCF10A (setting [3]), 300 nM. Besides, the IC50 in data set [1] stood at 10 nM; in data set [2] it was 500 nM.
Regarding C20-cyclopropyloaminonarasin [Nar-AM23], the IC50 in the data set on PDAC030T came to 60 nM; with PDAC090T, 320 nM; with PDAC085T, 40 nM; in the data set on PDAC211T, 50 nM; in the data set with PDAC053T, 200 nM; in the data set with MCF10A (setting [3]), 100 nM. For the same compound, the IC50 in data set [1] was determined as 10 nM; in data set [2], 450 nM.
For the compound C20-epi-ironomycin [Epi-AM5], the IC50 came out at 2870 nM with PDAC030T; 4160 nM with PDAC090T; 670 nM with PDAC085T; 1480 nM with PDAC211T; 2170 nM in the data set with PDAC053T; 1340 nM in the data set on MCF10A (setting [3]). Besides, the figures for the IC50 in data set [1] and in data set [2] were 1800 nM and 11800 nM, respectively.
With C20-propargyloaminonarasin [Nar-AM5], the IC50 with PDAC030T was 220 nM; in the data set on PDAC090T it was 800 nM; in the data set on PDAC085T, 120 nM; in the data set on PDAC211T it was 220 nM; with PDAC053T, 880 nM; in the data set with MCF10A (setting [3]), 220 nM. For the same compound, the results for the IC50 in data set [1] and in data set [2] were 110 nM and 1080 nM, respectively.
